Test results: patent US8748618B2, “Inhibitors of inv(16) leukemia” (University of Virginia Patent Foundation, priority 2009, dated 2014)

Assays:
[1] = biological target: CBFβ-SMMHC:RD (CBFβ-SMMHC binding to the Runt domain); experiment: FRET assay, inhibition of CBFβ-SMMHC binding to the Runt domain; settings: for IC50 FRET (CBFβ-SMMHC:RD, 20 nM both): 20 nM both proteins
Experimental: FRET assay. […] We fused the green fluorescent protein derivative Cerulean to the N-terminus of the Runt domain and the green fluorescent protein derivative Venus to the N-terminus of CBFβ-SMMHC (as well as to CBFβ (Gorczynski, Grembecka et al. 2007)). The ratio of the emission intensities at 525 nm and 474 nm, measured after excitation at 433 nm, was used as the readout in this assay. The dynamic range for the FRET assay was determined by adding a 30-fold excess of untagged CBFβ-SMMHC (or CBFβ in the case of CBFβ—Runt domain binding) to the assay and the associated change in the FRET ratio was defined as 100% inhibition.
As shown by Shoichet and co-workers (Seidler, McGovern et al. 2003), a primary source of false positives in any screen is micelle formation. […] A substantial loss of activity in the presence of detergent is a hallmark of inhibition by micelle formation and such compounds are thus identified as false positives. In addition, we are also incubating compound with protein and checking by mass spectroscopy to ensure that positive hits are not acting by covalent addition to either of the proteins.

RS4; 11 cells = experiment: MTT assay, growth of RS4;11 cells; format: cell-based
Excerpt: (§1) We have tested several of the compounds we have synthesized for their effects on ME-1 cells, a leukemia cell line harboring the inv(16) (Yanagisawa, Horiuchi et al. 1991). […] AI-4-57 has also been tested against the Kasumi-1, Jurkat, and RS4; 11 leukemia cell lines (FIG. 4.B). […] We have also examined effects on apoptosis using flow cytometry to measure Annexin V/PI (propidium iodide) positivity. […] The selectivity for specific cell lines and the correlation of activity in the FRET assay with effects on inv(16) cells all support the hypothesis that the compounds are hitting the desired target.
(§2) Below are two exemplary dimeric compound formulas, shown here without the possible substituents indicated elsewhere herein.

Jurkat cells = experiment: MTT assay, growth of Jurkat cells; format: cell-based
Excerpt: as §1, §2

Kasumi-1 cells = experiment: MTT assay, growth of Kasumi-1 cells; format: cell-based
Excerpt: as §1, §2

ME-1 cells = experiment: MTT viability assay, growth of ME-1 cells; format: cell-based, human
Excerpt: as §1
The dimer with a 7 atom linker (AI-4-62) has been tested for effects on the growth of the ME-1 cell line (see FIG. 7), a leukemia cell line with the inv(16).

CBFβ = CBFβ (Homo sapiens (Human), UniProt Q13951); experiment: NMR chemical shift perturbation with CBFβ; format: binding; settings: for NMR with CBFβ + 250 uM compound, CSP G 112: residue G 112; for NMR with CBFβ + 250 uM compound, CSP K 98: residue K 98
Excerpt: Validation of binding of a small molecule inhibitor to its protein target is an essential step in developing potent inhibitors. This can be readily achieved using either NMR spectroscopy or X-ray crystallography. In the case of X-ray crystallography, this is achieved by co-crystallization of the protein with the ligand and determination of the structure. In the case of NMR spectroscopy, the structure of a compound-protein complex can also be determined. In addition, chemical shift perturbations of the protein NMR spectrum (typically 2D ^15N—^1H HSQC or ^13C—^1H HSQC) in the presence of compounds can both confirm binding to the target and localize the binding site on a protein (Pellecchia, Sem et al. 2002; Salvatella and Giralt 2003). The latter method is a quick and efficient method to confirm binding to the protein and to determine the binding site when appropriate labeled samples are available and the resonance assignments are known. Such data can also be used to dock the small molecule to the protein. Because the structure of CBFβ has been solved by NMR (Huang, Peng et al. 1999), resonance assignments are available and we have employed this approach as an additional screen to ensure the validity of the inhibitors we are developing and to determine the binding site (see below).

[2] = test system: human bone marrow mononuclear cells (BM MNCs); experiment: MTT assay on human bone marrow mononuclear cells; format: cell-based; settings: 48 hour treatment, up to 10 μM
Experimental: (§3) We have tested AI-4-83 on human bone marrow mononuclear cells (for toxicity) and on one inv(16) patient sample using an MTT assay after a 48 hour compound treatment.

CDKN1a gene expression = CDKN1a gene expression by RT-PCR in ME-1 cells; format: cell-based, human; settings: 10, 5 and 2.5 μM, FIG. 9
Excerpt: The effects of the dimeric inhibitor AI-4-83 on CDKN1a gene expression were examined using RT-PCR. […] In addition, the effect of AI-4-83 is much more substantial than that for the monomeric compound, supporting the increased efficacy of the dimeric versus monomeric compounds.

[3] = test system: inv(16) repression (CBFβ-SMMHC) at RUNX binding site reporter; experiment: Luciferase reporter assay of inv(16) repression; format: cell-based; settings: FIG. 10
Excerpt: A luciferase reporter assay has been developed to test the effects of inhibitors on inv(16) repression. Expression of luciferase is driven by multiple copies of a RUNX binding site using endogenous RUNX and CBFβ. CBFβ-SMMHC is expressed in these cells, resulting in repression of luciferase expression.

[4] = test system: normal bone marrow mononuclear cells; experiment: Effect on normal bone marrow mononuclear cells (control of the leukemia initiating cell test); format: cell-based
Excerpt: (§4) Dr. Lucio Castilla's lab has identified a specific population of cells referred to as leukemia initiating cells using mouse models of inv(16) leukemia (Kuo, Y. H., et al., Cbf beta-SMMHC induces distinct abnormal myeloid progenitors able to develop acute myeloid leukemia. Cancer Cell, 2006. 9(1): p. 57-68). […] Upon acquisition of such secondary mutations, these cells can progress to overt leukemia. These cells are also typically more resistant to traditional cytotoxic chemotherapy and therefore represent a pool of cells from which relapse can occur. We have tested AI-4-83 against this pool of cells and shown that the compound is very effective at inducing apoptosis in this population.

[5] = test system: inv(16) patient sample cells; experiment: MTT assay on inv(16) patient sample; format: cell-based, human; settings: 48 hour treatment, 10 μM
Experimental: as §3

[6] = test system: inv(16) leukemia initiating cells; experiment: Apoptosis of inv(16) leukemia initiating cells from a mouse model; format: cell-based; settings: 3 day treatment, 2 μM, FIG. 12
Excerpt: as §4

Chain of CBFβ (Q13951 1-141, species assumed): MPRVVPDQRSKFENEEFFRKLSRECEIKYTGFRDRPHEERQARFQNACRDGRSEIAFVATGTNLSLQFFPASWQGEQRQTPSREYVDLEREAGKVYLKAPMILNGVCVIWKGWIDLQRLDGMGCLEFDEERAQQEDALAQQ

**Q.** `FC(F)(F)c1cccc2[nH]c(-c3ccccn3)nc12` [AI-4-47] was tested. Which “IC50 FRET (CBFβ-SMMHC:RD, 20 nM both)” value ([1]; Table 1 monomers) did it give?
**A.** Interference with assay

**Q.** Which results are given for `COc1ccc2[nH]c(-c3ccccn3)nc2c1` [AI-4-57]?
**A.** Growth of RS4;11 cells (RS4; 11 cells; MTT, FIG. 4B): No effect on growth; Growth of Jurkat cells (Jurkat cells; MTT, FIG. 4B): No effect on growth; Growth of Kasumi-1 cells (Kasumi-1 cells; MTT, FIG. 4B): modest effect; Growth of ME-1 cells (ME-1 cells; MTT, FIG. 4A): effective inhibition of growth; NMR with CBFβ + 250 uM compound, CSP G 112 (CBFβ): 0.039 ppm; NMR with CBFβ + 250 uM compound, CSP K 98 (CBFβ): 0.026 ppm

**Q.** For `COc1ccc(-c2nc3cc(OC)ccc3[nH]2)nc1` [AI-4-61], which “NMR with CBFβ + 250 uM compound, CSP G 112” value (CBFβ) is on record?
**A.** 0.015 ppm

**Q.** What about the “NMR with CBFβ + 250 uM compound, CSP K 98” value (CBFβ) of the same compound?
**A.** 0.013 ppm

**Q.** With `COc1ccc2[nH]c(-c3ccc(OCCOCCOc4ccc(-c5nc6cc(OC)ccc6[nH]5)nc4)cn3)nc2c1` [AI-4-62] as the compound, how does the “Effect on RS4;11 cells” value (RS4; 11 cells; 10 μM, FIG. 8) read?
**A.** little to no effect

**Q.** What about the “Viability of bone marrow mononuclear cells” value [2] of the same compound?
**A.** no effect on the viability

**Q.** What about the “Effect on Jurkat cells” value (Jurkat cells; 10 μM, FIG. 8) of the same compound?
**A.** little to no effect

**Q.** And the “Effect on Kasumi-1 cells” value (Kasumi-1 cells; 10 μM, FIG. 8)?
**A.** little to no effect

**Q.** What about the CDKN1a gene expression (CDKN1a gene expression) of the same compound?
**A.** dose-dependent substantial increase

**Q.** And the Luciferase activity [3]?
**A.** dose-dependent increase in luciferase activity

**Q.** What about the “Effect on normal bone marrow mononuclear cells” value [4] of the same compound?
**A.** no effect

**Q.** And the inhibition at 10 µM (ME-1 cells; Homo sapiens, ME-1, 10 μM)?
**A.** 100%

**Q.** And the “Potency of dimer relative to the corresponding monomer on ME-1 cells” value (ME-1 cells; MTT, FIG. 7)?
**A.** ~15 fold

**Q.** And the “Viability of inv(16) patient sample” value [5]?
**A.** substantial effect

**Q.** And the “Cell death of leukemia initiating cells” value [6]?
**A.** 80%

**Q.** How did the “NMR with CBFβ + 250 uM compound, CSP G 112/K 98 (in words)” value (“NMR … (in words)” below) (CBFβ) turn out when `CC(C)Oc1ccc2[nH]c(-c3ccccn3)nc2c1` [AI-4-70] was run?
**A.** No CSP

**Q.** How did the “NMR … (in words)” value (CBFβ) turn out when `c1ccc(-c2nc3cc(N4CCOCC4)ccc3[nH]2)nc1` [AI-10-3] was run?
**A.** No CSP

**Q.** With `CN(C)c1ccc2[nH]c(-c3ccc(OCCOCCOc4ccc(-c5nc6cc(N(C)C)ccc6[nH]5)nc4)cn3)nc2c1` [AI-10-21] as the compound, how does the “IC50 FRET (CBFβ-SMMHC:RD, 20 nM both)” value ([1]; Table 2 dimers) read?
**A.** Interference with assay

**Q.** What does the source list for `CSc1ccc2[nH]c(-c3ccccn3)nc2c1` [AI-10-35]?
**A.** NMR with CBFβ + 250 uM compound, CSP G 112 (CBFβ): 0.037 ppm; NMR with CBFβ + 250 uM compound, CSP K 98 (CBFβ): 0.027 ppm

**Q.** For `FC(F)(F)Oc1ccc2[nH]c(-c3ccccn3)nc2c1` [AI-10-47], which “NMR … (in words)” value (CBFβ) is on record?
**A.** No CSP

**Q.** And the “Precipitation in the NMR sample” value (CBFβ; 250 uM compound with CBFβ)?
**A.** some precipitation

**Q.** `COc1ccc2[nH]c(-c3ncccc3OC)nc2c1` [AI-10-53] was tested. Which “NMR with CBFβ + 250 uM compound, CSP G 112” value (CBFβ) did it give?
**A.** 0.028 ppm

**Q.** What about the “NMR with CBFβ + 250 uM compound, CSP K 98” value (CBFβ) of the same compound?
**A.** 0.02 ppm

**Q.** Which “NMR … (in words)” value (CBFβ) does the source give for `O=C(O)c1ccc2[nH]c(-c3ccccn3)nc2c1` [AI-10-57] here?
**A.** No CSP

**Q.** Which “NMR … (in words)” value (CBFβ) does the source give for `Oc1ccc2[nH]c(-c3ccccn3)nc2c1` [AI-10-61] here?
**A.** No CSP

**Q.** For `Cc1cccnc1-c1nc2cc(OC(F)(F)F)ccc2[nH]1` [AI-10-63], which Δ500 [1] is on record?
**A.** Δ500 = 61%

**Q.** For `FC(F)(F)Oc1ccc2[nH]c(-c3ncccc3C(F)(F)F)nc2c1` [AI-10-64], which Δ500 [1] is on record?
**A.** Δ500 = 50%

**Q.** How did the Δ167 [1] turn out when `COc1ccc2[nH]c(-c3ncccc3C(F)(F)F)nc2c1` [AI-10-69] was run?
**A.** Δ167 = 18%

**Q.** `NC(=O)c1ccc2[nH]c(-c3ccccn3)nc2c1` [AI-10-70] was tested. Which Δ500 [1] did it give?
**A.** Δ500 = 61%
